Laboratory results as given in US12570603B2, “FABP4/5 inhibitors, methods of use and methods of making” (Novius Therapeutics, LLC, priority 2021, dated 2026).
Values belong to the compound of their own block, whether it stands above or below them.

Assays:
[1] = system: MB-231 shC and shF5 cells; assay: Proliferation assay, MB-231 lines expressing control shRNA (shC) or FABP5 shRNA (shF5); assay type: cell-based; settings: MB-231 shC vs shF5, different concentrations
Protocol: (§1) 2000 cells were plated in each well of 96-well plate. The next day cells were treated with compounds and incubated in Incucyte for 4 days. Images taken every 4 hours for the duration of the time were analyzed to calculate percentage of confluency in response to the treatments. Growth inhibition was calculated as 1−(percentage of viable cells out of untreated cells).

[2] = system: FABP4 together with PPARγ; assay: Transcriptional activation assay in cells overexpressing FABP4, with PPARγ activator rosiglitazone; assay type: cell-based; settings: FIG. 7
Protocol: (§2) COS-7 were cultured in 6-well plates and co-transfected with either a luciferase reporter driven by 3 copies of a PPRE and expression vector for either PPARδ, PPARα or PPARγ together with a vector harboring cDNA for β-galactosidase, serving as a transfection control. To test whether FABP4 or FABP5 mediate activation of their cognate receptors PPARγ and PPARδ, respectively, cells were also co-transfected with a plasmid harboring sequence of either FABP4 or FABP5. 18 h post-transfection, cells were placed in a serum-free medium and treated with agonist/compound. 18 h. later, cells were lysed, luciferase activity was assayed (Promega, WI, USA) and corrected for transfection efficiency by the activity of β-galactosidase.

PPARδ = assay: Transactivation assay, PPRE luciferase reporter in COS-7 cells; assay type: cell-based
Protocol: as §2
(§3) COS-7 were cultured in 6-well plates and co-transfected with either a luciferase reporter driven by 3 copies of a PPRE and expression vector for either PPARδ, PPARα or PPARγ together with a vector harboring cDNA for β-galactosidase, serving as a transfection control. 18 h. post-transfection, cells were placed in a serum-free medium and treated with agonist/compound. 18 h. later, cells were lysed, luciferase activity was assayed (Promega, WI, USA) and corrected for transfection efficiency by the activity of β-galactosidase.

PPARγ = assay: as above; assay type: cell-based; settings: for activation of transcription by PPARγ: tested against rosiglitazone, FIG. 4; for activation of PPARγ: 5 μM, COS7 cells, FIG. 36C
Protocol: as §2, §3

TNBC lines and MCF7 = assay: Proliferation assay in multiple TNBC lines and MCF7, MB-231 shF5 as control; assay type: cell-based
Protocol: as §1

[3] = system: PPARδ targets PDPK1 and CD47 in TNBC cells MB-231; assay: Real-time PCR of PPARδ targets; assay type: cell-based; settings: MB-231, 1 μM, 6 hours
Protocol: (§4) Cells were treated with a compound for 6 h. then lysed and RNA was extracted using Trizol, according to the manufacturer's instructions. cDNA was generated using GeneAmp RNA PCR (Applied Biosystems). qPCR was carried out using TaqMan chemistry and Assays-on-Demand probes (Applied Biosystems). 18s (4352930) rRNA was used for normalization. Relative expression was calculated as 2^−ΔΔCT.

[4] = system: PPARδ targets PDPK1 and CD47 in TNBC cells MB-157; assay: Real-time PCR of PPARδ targets; assay type: cell-based, human; settings: MB-157, 1 μM, 6 hours
Protocol: as §4

[5] = system: FABP5 together with PPARδ; assay: Transcriptional activation assay in cells overexpressing FABP5, with PPARδ activator GW0742; assay type: cell-based; settings: together with GW0742, FIG. 8
Protocol: as §2

FABP4 = target: T1, FABP4 (Homo sapiens, UniProt P15090); assay: FABP binding assay by fluorescence titration (ANS competition); settings: fluorescence competition with ANS; read-out: FABP4 binding
T1 construct: made in house
T1 sequence (P15090 whole entry, species assumed): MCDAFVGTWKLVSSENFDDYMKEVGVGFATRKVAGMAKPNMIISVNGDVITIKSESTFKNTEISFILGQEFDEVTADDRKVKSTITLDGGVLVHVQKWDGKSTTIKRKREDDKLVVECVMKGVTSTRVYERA
Protocol: (§5) This example illustrates a binding assay study used to determine the binding affinity of the various inhibitor compounds disclosed herein with the various FABPs: FABP3, FABP4, FABP5 and FABP7.
(§6) Binding assays for FABP3, FABP4, FABP5 and FABP7 were carried out by fluorescence titrations. FABPs were bacterially expressed and purified and the equilibrium dissociation constants (Kd) that characterize their interactions with different compounds were measured by fluorescence competition assays. The method entails two steps as described in e.g., Lin, Q. et al., “Ligand selectivity of the peroxisome proliferator-activated receptor alpha,” Biochemistry 38, 185-190, doi:10.1021/bi9816094 bi9816094 [pii](1999). In the first step, Kd for the association of the protein with the fluorescent fatty acid probe ANS was measured. Protein ([…]) was titrated with ANS from a concentrated solution in DMSO. Ligand binding was monitored by following the increase in the fluorescence of the ligand upon binding to the protein, and Kd for the association of ANS with the each FABP was computed from titration curves as described in e.g., Norris, A. W. & Li, E., “Fluorometric titration of the CRABPs,” Methods Mol Biol 89, 123-139 (1998)). Kds for binding of non-fluorescent ligands were then measured by monitoring their ability to displace ANS in the binding pocket of the protein. Each FABP was pre-complexed with ANS at 1:1 molar ratio and titrated with the different compounds whose binding was reflected by a decrease in probe fluorescence. Kds were extracted from the EC50 of the competition curve and the measured Kd for ANS.
(§7) Binding assays for FABP3, FABP4, FABP5 and FABP7 were carried out by fluorescence titrations as described in Example 16.

FABP5 = target: T2, FABP5 (Homo sapiens, UniProt Q01469); assay: as above; settings: fluorescence competition with ANS; read-out: FABP5 binding
T2 construct: made in house
T2 sequence (Q01469 whole entry, species assumed): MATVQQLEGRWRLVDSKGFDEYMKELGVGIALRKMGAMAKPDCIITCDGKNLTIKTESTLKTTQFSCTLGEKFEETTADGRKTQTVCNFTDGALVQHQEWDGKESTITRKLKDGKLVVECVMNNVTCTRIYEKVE
Protocol: as §5, §6, §7

MB-231 cells = assay: Proliferation assay (Incucyte confluency, 4 days); assay type: cell-based; settings: MB-231, serial dilution
Protocol: (§8) COS-7, MDA-MB-231, HepG2, LX-2, 3T3-L1, NPG, and MCF7 were cultured in Dulbecco's modified Eagle's medium (DMEM) supplemented with 10% fetal bovine serum (Invitrogen Life Sciences, Carlsbad, CA). MDA-MB-157 and MB-549 cells were cultured in L-Glutamine containing RPMI medium supplemented with 10% fetal calf serum (Invitrogen Life Sciences, Carlsbad, CA). For proliferation assays, 2000 cells were plated in each well of 96-well plate. The next day cells were treated with compounds and incubated in Incucyte for 4 days. Images taken every 4 hours for the duration of the time were analyzed to calculate percentage of confluency in response to the treatments.
The TNBC line MB-231 was used to calculate the efficacy of compounds B104, B106, B110, B116, and B118 in inhibiting proliferation of the cancer cells. Cells were treated with serial dilution of the compounds or the known FABP5/7 inhibitor SBF-I26 and proliferation was measured in Incucyte by calculating percentage of confluency every 4 hours over 4 days. […] The EC50 for each compound was calculated by fitting the percentage of inhibition vs. the logarithmic transformation of the used concentrations (FIG. 37B and FIG. 37D). Additionally, the effect of B116 and B118 was also tested on proliferation of the human TNBC lines MDA-MB-157 (FIG. 37E) and MB-549 (FIG. 37F).

PPARα = target: T3, PPARα (Homo sapiens, UniProt Q07869); assay: Transactivation assay, PPRE luciferase reporter in COS-7 cells; assay type: cell-based
T3 construct: expressed in transfected cells; host or cells: COS-7
T3 sequence (Q07869 whole entry, species assumed): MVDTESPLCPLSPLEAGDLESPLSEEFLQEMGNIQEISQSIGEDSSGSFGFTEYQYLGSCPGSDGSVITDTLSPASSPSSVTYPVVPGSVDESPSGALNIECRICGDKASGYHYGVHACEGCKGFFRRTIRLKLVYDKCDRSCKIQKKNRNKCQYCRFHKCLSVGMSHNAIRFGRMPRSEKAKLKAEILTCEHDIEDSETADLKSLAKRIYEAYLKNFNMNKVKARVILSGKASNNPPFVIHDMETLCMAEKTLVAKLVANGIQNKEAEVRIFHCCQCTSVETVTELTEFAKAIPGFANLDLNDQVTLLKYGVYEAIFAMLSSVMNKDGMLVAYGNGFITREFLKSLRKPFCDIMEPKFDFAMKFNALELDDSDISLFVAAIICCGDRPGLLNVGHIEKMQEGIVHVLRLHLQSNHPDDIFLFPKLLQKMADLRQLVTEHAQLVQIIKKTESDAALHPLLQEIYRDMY
Protocol: as §2, §3

[6] = system: NPG human neuroblastoma cells; assay: Neuroblastoma proliferation assay with or without all-trans retinoic acid; assay type: cell-based; settings: for proliferation of neuroblastoma cells in combination with atRA: combined with atRA; for proliferation of neuroblastoma cells: compound alone, 4 days
Protocol: as §8
Activation of PPARβ by atRA shifts the signaling of this vitamin from its cognate receptor RAR that is known to have anti-carcinogenic activities in multiple cancers to the pro-carcinogenic PPARβ. […] Accordingly, NB, human NPG cells were used to test the effect of FABP5 inhibitors on cells' proliferation in combination with atRA. Cells were treated with either B104 or B108 in the presence or absence of atRA.

Kd (FABP4): 242 nM | Kd (FABP5): 15 nM
SMILES: CC(C)Oc1cc(NC(=O)COCC(=O)O)c(Cl)cc1Cl [Compound B110, 2-(2-((2,4-dichloro-5-isopropoxyphenyl)amino)-2-oxoethoxy)acetic acid]
suppression of growth of TNBC cells compared with SBF-I26 (MB-231 cells): Suppress Growth of TNBC Cells More Effectively than the Commercially Available Inhibitor SBF-I26 | activation of transcription by PPARδ (PPARδ; 5 μM, COS7 cells, FIG. 36A): do not Activate Transcription

Kd (FABP4): 116 nM | Kd (FABP5): 6 nM
SMILES: CC(C)Oc1cc(NC(=O)CSC(C)C(=O)O)c(Cl)cc1Cl (centres unmarked) [Compound B102, 2-((2-((2,4-dichloro-5-isopropoxyphenyl)amino)-2-oxoethyl)thio)propanoic acid]

Kd (FABP4): 218 nM | Kd (FABP5): 6 nM
SMILES: CC(C)Oc1cc(NC(=O)CCCC(=O)O)c(Cl)cc1Cl [Compound B114, 5-((2,4-dichloro-5-isopropoxyphenyl)amino)-5-oxopentanoic acid]

activation of PPARα (PPARα; compared to WY-14643, FIG. 6): activate PPARα
SMILES: O=C(O)CSCC(=O)Nc1cc(OCc2ccccc2)c(Cl)cc1Cl [Compound B7]
TNBC cell growth, shC versus shF5 [1]: suppressed TNBC cell growth only in the cells highly expressing FABP5 | inhibition of PPARγ activity in cells overexpressing FABP4 [2]: inhibit activity of the nuclear receptors only in cells that express the binding proteins | activation of transcription by PPARδ (PPARδ; compared to GW0742, FIG. 5): did not active transcription | activation of transcription by PPARγ (PPARγ): did not activate transcription | growth inhibition of TNBC lines by FABP5 level (TNBC lines and MCF7): inhibited growth of only TNBC lines expressing high FABP5 levels | levels of endogenous PPARδ targets PDPK1 and CD47 [3]: significantly lower | levels of endogenous PPARδ targets PDPK1 and CD47 [4]: significantly lower | inhibition of PPARδ activity in cells overexpressing FABP5 [5]: inhibit activity of the nuclear receptors only in cells that express the binding proteins

Continued, compound first:

SMILES: C#CCOc1cc(NC(=O)CSCC(=O)O)c(Cl)cc1Cl [Compound B9]
TNBC cell growth, shC versus shF5 [1]: suppressed TNBC cell growth only in the cells highly expressing FABP5 | inhibition of PPARγ activity in cells overexpressing FABP4 [2]: inhibit activity of the nuclear receptors only in cells that express the binding proteins | activation of transcription by PPARδ (PPARδ; compared to GW0742, FIG. 5): did not active transcription | activation of transcription by PPARγ (PPARγ): did not activate transcription | growth inhibition of TNBC lines by FABP5 level (TNBC lines and MCF7): inhibited growth of only TNBC lines expressing high FABP5 levels | levels of endogenous PPARδ targets PDPK1 and CD47 [3]: significantly lower | levels of endogenous PPARδ targets PDPK1 and CD47 [4]: significantly lower | inhibition of PPARδ activity in cells overexpressing FABP5 [5]: inhibit activity of the nuclear receptors only in cells that express the binding proteins

SMILES: CC(C)Oc1cc(NC(=O)C(C)SC(C)C(=O)O)c(Cl)cc1Cl (centres unmarked) [Compound B106, 2-((1-((2,4-dichloro-5-isopropoxyphenyl)amino)-1-oxopropan-2-yl)thio)propanoic acid]
Kd (FABP4): 286 nM | Kd (FABP5): 15 nM

SMILES: CC(C)Oc1cc(NC(=O)CSC(C)(C)C(=O)O)c(Cl)cc1Cl [Compound B104, 2-((2-((2,4-dichloro-5-isopropoxyphenyl)amino)-2-oxoethyl)thio)-2-methylpropanoic acid]
Kd (FABP4): 97 nM | Kd (FABP5): 7 nM | suppression of growth of TNBC cells compared with SBF-I26 (MB-231 cells): Suppress Growth of TNBC Cells More Effectively than the Commercially Available Inhibitor SBF-I26 | activation of transcription by PPARδ (PPARδ; 5 μM, COS7 cells, FIG. 36A): do not Activate Transcription | activation of PPARα (PPARα; 5 μM, COS7 cells, FIG. 36B): activate both PPARα and PPARγ | activation of PPARγ (PPARγ): activate both PPARα and PPARγ | proliferation of neuroblastoma cells in combination with atRA [6]: enhanced | proliferation of neuroblastoma cells [6]: significantly inhibited proliferation

SMILES: CC(C)Oc1cc(NC(=O)C2CCC(C(=O)O)O2)c(Cl)cc1Cl (centres unmarked) [Compound B112, 5-((2,4-dichloro-5-isopropoxyphenyl)carbamoyl)tetrahydrofuran-2-carboxylic acid]
Kd (FABP4): 116 nM | Kd (FABP5): 15 nM

SMILES: CC(C)Oc1cc(NC(=O)C2CCC(C(=O)O)S2)c(Cl)cc1Cl (centres unmarked) [Compound B108, 5-((2,4-dichloro-5-isopropoxyphenyl)-carbamoyl)tetrahydrothiophene-2-carboxylic acid]
Kd (FABP4): 48 nM | Kd (FABP5): 2 nM | suppression of growth of TNBC cells compared with SBF-I26 (MB-231 cells): Suppress Growth of TNBC Cells More Effectively than the Commercially Available Inhibitor SBF-I26 | activation of transcription by PPARδ (PPARδ; 5 μM, COS7 cells, FIG. 36A): do not Activate Transcription | activation of PPARγ (PPARγ): activated PPARγ | proliferation of neuroblastoma cells in combination with atRA [6]: enhanced | proliferation of neuroblastoma cells [6]: significantly inhibited proliferation
